Measurements: PubChem BioAssay AID651581 (Sanford-Burnham Center for Chemical Genomics, 2012)
Calls of active or inactive are those of the source. No rule for the calls is given here.

Key:
[1] = target: Endothelial PAS domain-containing protein 1 (Homo sapiens) (UniProt Q99814); assay: HIF-2a and HIF-1a reporter inhibition panel, dose response, selectivity assay for HIF-2a inhibitor project, cell-based, luminescence (AID 651581)
[2] = target: Hypoxia-inducible factor 1-alpha (Homo sapiens) (UniProt Q16665); assay: as above; settings: HIF-1a
Sequence of Hypoxia-inducible factor 1-alpha (Homo sapiens) (Q16665 whole entry, looked up): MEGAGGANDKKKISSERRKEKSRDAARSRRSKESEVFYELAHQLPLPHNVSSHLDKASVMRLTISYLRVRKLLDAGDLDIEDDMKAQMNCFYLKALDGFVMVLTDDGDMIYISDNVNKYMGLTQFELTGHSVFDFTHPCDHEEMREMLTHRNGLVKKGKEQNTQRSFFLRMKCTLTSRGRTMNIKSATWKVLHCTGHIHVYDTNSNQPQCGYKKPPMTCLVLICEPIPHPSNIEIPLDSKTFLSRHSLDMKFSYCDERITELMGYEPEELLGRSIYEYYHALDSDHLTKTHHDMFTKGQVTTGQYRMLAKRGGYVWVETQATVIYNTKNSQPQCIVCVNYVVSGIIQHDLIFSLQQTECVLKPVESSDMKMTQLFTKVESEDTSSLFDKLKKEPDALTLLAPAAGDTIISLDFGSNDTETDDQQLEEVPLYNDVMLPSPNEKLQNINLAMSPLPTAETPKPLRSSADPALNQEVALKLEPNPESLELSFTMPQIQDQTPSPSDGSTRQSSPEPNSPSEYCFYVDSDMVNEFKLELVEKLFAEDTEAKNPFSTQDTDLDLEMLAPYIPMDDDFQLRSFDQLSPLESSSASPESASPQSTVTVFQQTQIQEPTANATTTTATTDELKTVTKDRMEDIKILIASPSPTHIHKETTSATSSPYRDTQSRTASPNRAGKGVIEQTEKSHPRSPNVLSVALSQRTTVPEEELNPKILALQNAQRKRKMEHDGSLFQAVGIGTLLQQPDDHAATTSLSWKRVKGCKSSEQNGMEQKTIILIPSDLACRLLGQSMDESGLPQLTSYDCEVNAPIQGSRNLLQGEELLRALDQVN

Structure (SMILES) | IC50 ([1]; HIF-2a PANC, mean of runs) | IC50 ([1]; HIF-2a PANC, run 1) | IC50 ([1]; HIF-2a PANC, run 2) | IC50 ([1]; HIF-2a, mean of runs) | IC50 ([1]; HIF-2a, run 1) | IC50 ([1]; HIF-2a, run 2) | IC50 ([2]; run 1) | IC50 ([2]; run 2) | IC50 ([2]; mean of runs)
COc1ccc(OC)c(S(=O)(=O)ON2C(=O)c3ccccc3C2=O)c1 | > 99 µM (inactive) | > 99 µM | > 99 µM | 8.27 µM | 9.25 µM | 7.3 µM | > 99 µM | > 99 µM | 
CC(=O)Nc1ccc(OCC(=O)c2ccc(C)cc2C)cc1 | 4.2 µM | 3.04 µM | 5.37 µM | 2.47 µM | 2.75 µM | 2.19 µM | 4.55 µM | 87.9 µM | 46.2 µM
CCOc1cc(/C=N/Nc2cccc(C(=O)O)c2)ccc1OC(=O)c1ccccc1 |  | > 99 µM | 30.1 µM | 4.22 µM | 4.44 µM | 4 µM | > 99 µM | > 99 µM | 
CCNC(=O)NC(=O)COC(=O)CCCSc1nc2ccccc2s1 | 12.1 µM | 10.8 µM | 13.4 µM | 5.05 µM | 5.08 µM | 5.02 µM | 28.3 µM | 7.51 µM | 17.9 µM
CC(C)c1ccc(/C=N/Nc2ccc(C(=O)O)cc2)cc1 | < 1 µM | < 3 µM | < 1 µM |  | 7.97 µM | < 0.19 µM | 28 µM | 21.7 µM | 24.8 µM
COc1cc(N2C(=O)C=CC2=O)c(OC)cc1Cl | inactive | 38.5 µM | 45.2 µM | 8.55 µM | 8.69 µM | 8.4 µM | 33.2 µM | 40.4 µM | 36.8 µM
CCOC(=O)Cc1csc(N/N=C/c2ccc(C(F)(F)F)cc2)n1 | 0.711 µM | 0.556 µM | 0.866 µM |  | > 99 µM | 0.221 µM | < 10 µM | > 99 µM | 
COCCn1c(C)cc(C(=O)CSc2nnc(C)s2)c1C | 7.96 µM | 3.81 µM | 12.1 µM | 5.99 µM | 6.5 µM | 5.48 µM | 8.55 µM | 18.9 µM | inactive
Cc1ccoc1C(=O)Nc1ccc(CC(=O)O)cc1 | 0.796 µM | 0.895 µM | 0.698 µM | 0.374 µM | 0.366 µM | 0.382 µM | > 99 µM | > 99 µM | 
O=C(c1ccccc1)c1cc(Cl)ccc1N1C(=O)C=CC1=O |  | 25.3 µM | > 99 µM | 6.91 µM | 7.05 µM | 6.78 µM | 55 µM | 61.7 µM | 58.4 µM
O=C1C=CC(=O)N1c1cccc(-c2ccccc2)c1 |  | > 99 µM | 58.5 µM | 8.09 µM | 7.96 µM | 8.22 µM | 26.2 µM | 36.6 µM | 31.4 µM
Cc1nc2cc(-c3cccc(F)c3)nn2c(C)c1CCC(=O)N1CCC2(CC1)OCCO2 | 2.03 µM | 2.17 µM | 1.9 µM | 1.27 µM | 1.27 µM | 1.28 µM | 81.5 µM | 56.2 µM | 68.8 µM
COc1ccc(-n2nc3ccc(N)cc3n2)cc1 | 2.26 µM | 3.23 µM | 1.3 µM | inactive | 7.4 µM | 14.9 µM | 24.9 µM | 62.1 µM | 43.5 µM
O=C(O)c1cccc(NC(=S)NC(=O)c2ccc3ccccc3c2)c1 |  | < 30 µM | > 99 µM | inactive | 10.9 µM | 9.32 µM | > 99 µM | > 99 µM | 
O=C(O)c1cccc(-c2nnn(Cc3ccccc3Cl)n2)c1 | > 99 µM (inactive) | > 99 µM | > 99 µM | < 30 µM (inactive) | < 30 µM | < 30 µM | > 99 µM | > 99 µM | 
O=C(O)c1cc(N/N=C/c2ccc3c(c2)OCCO3)ccc1Cl | > 99 µM (inactive) | > 99 µM | > 99 µM |  | < 30 µM | 5.03 µM | 45.8 µM | > 99 µM | 
CCOC(=O)C1CCN(C(=O)CCc2c(C)nc3cc(-c4ccccc4)nn3c2C)CC1 | 2.16 µM | 1.83 µM | 2.48 µM | 1.39 µM | 1.51 µM | 1.27 µM | 12.6 µM | 6.98 µM | 9.79 µM
Cc1cc(C(=O)Nc2cccc(C(=O)O)c2)oc1C | > 99 µM (inactive) | > 99 µM | > 99 µM | 6.46 µM | 6.81 µM | 6.12 µM | 41.9 µM | > 99 µM | 
